For 22 compounds, EC50 results are on record in US20110136801A1, “Novel Compounds” (Dainippon Sumitomo Pharma Co. Ltd., priority 2009, published 2011).

Structures are written as SMILES.

The test has as its target T1, human TLR7 (Homo sapiens, UniProt Q9NYK1).
T1 construct: expressed in transfected cells; host or cells: HEK293 cell line stably expressing the pNiFty2-SEAP reporter plasmid; TLR7 in pUNO vector, blasticidin selection
T1 sequence (Q9NYK1 27-1049): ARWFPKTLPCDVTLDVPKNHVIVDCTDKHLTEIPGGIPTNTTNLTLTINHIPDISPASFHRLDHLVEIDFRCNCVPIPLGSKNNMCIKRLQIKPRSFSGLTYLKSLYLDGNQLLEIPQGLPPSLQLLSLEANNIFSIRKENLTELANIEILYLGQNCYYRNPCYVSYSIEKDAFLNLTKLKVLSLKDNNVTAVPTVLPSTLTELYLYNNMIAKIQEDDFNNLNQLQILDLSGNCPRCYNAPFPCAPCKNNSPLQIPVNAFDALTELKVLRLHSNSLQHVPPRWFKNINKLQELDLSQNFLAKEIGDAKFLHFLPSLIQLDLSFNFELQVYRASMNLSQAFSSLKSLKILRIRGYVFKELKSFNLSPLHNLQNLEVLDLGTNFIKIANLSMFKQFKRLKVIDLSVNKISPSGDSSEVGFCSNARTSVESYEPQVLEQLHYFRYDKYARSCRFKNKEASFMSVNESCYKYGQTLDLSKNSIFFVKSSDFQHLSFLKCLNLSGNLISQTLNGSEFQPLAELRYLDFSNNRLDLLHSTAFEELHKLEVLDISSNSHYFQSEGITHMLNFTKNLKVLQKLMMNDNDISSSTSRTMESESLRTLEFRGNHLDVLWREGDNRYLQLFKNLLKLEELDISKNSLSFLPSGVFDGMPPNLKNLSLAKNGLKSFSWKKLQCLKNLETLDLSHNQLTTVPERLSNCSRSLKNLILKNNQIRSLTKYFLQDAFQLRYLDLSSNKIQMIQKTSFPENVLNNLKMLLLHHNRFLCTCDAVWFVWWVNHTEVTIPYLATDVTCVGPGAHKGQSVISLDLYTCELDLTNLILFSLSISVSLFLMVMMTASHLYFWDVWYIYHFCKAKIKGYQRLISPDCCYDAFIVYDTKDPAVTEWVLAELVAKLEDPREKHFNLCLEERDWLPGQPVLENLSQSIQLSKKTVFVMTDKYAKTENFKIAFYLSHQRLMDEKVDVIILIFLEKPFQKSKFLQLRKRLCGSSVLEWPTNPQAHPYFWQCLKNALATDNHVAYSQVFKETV
Kind of test: Human TLR7 Assay (SEAP reporter in HEK293 cells).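 Note: Read-out is secreted alkaline phosphatase made under an NFkB/ELAM-1 composite promoter, reporting TLR7-triggered NFkB activation.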 The class given is cell-based. The note with it: HEK293 cell line expressing human TLR7 and pNiFty2-SEAP reporter, overnight incubation at 37° C., 0.1% DMSO; read-out: hTLR7 EC50.

Description: The most common variant sequence of human TLR7 (represented by the EMBL sequence AF240467) was cloned into the mammalian cell expression vector pUNO and transfected into a HEK293 cell line already stably expressing the pNiFty2-SEAP reporter plasmid; integration of the reporter gene was maintained by selection with the antibiotic zeocin. Transfectants with stable TLR7 expression were selected using the antibiotic blasticidin. In this reporter cell-line, expression of secreted alkaline phosphatase (SEAP) is controlled by an NFkB/ELAM-1 composite promoter comprising five NFkB sites combined with the proximal ELAM-1 promoter. TLR signaling leads to the translocation of NFkB and activation of the promoter results in expression of the SEAP gene. TLR7-specific activation was assessed by determining the level of SEAP produced following overnight incubation of the cells at 37° C. with the standard compound in the presence of 0.1% (v/v) dimethylsulfoxide (DMSO). Concentration dependent induction of SEAP production by compounds was expressed as the concentration of compound which produced half of the maximal level of SEAP induction for that compound (EC50).

On to `CCOC(=O)COc1cccc(CN(CCCn2c(CCOC)nc3c(N)nc4ccccc4c32)C(=O)CN2CCCC2)c1` [Example 31, Ethyl 2-{3-[(N-{3-[4-amino-2-(2-methoxyethyl)-1H-imidazo[4,5-c]quinolin-1-yl]propyl}-2-(pyrrolidin-1-yl)acetamido)methyl]phenoxy}acetate], for which the half-maximal effective concentration (EC50) turned out to be 150 nM.

For `CCOC(=O)COc1cccc(CN(CCN2CCCCC2)C(=O)NCCCCn2c(CCOC)nc3c(N)nc4ccccc4c32)c1` [Example 130, Ethyl 2-{3-[(3-{4-[4-amino-2-(2-methoxyethyl)-1H-imidazo[4,5-c]quinolin-1-yl]butyl}-1-{2-(piperidin-1-yl)ethyl}ureido)methyl]phenoxy}acetate], the EC50 worked out at 24.4 nM. As to `CCN(CC)CC(=O)N(CCCn1c(CCOC)nc2c(N)nc3ccccc3c21)Cc1ccc(C)c(OCC(=O)OC(C)C)c1` [Example 67, Isopropyl 2-{5-[(N-{3-[4-amino-2-(2-methoxyethyl)-1H-imidazo[4,5-c]quinolin-1-yl]propyl}-2-{diethylamino}acetamido)methyl]-2-methylphenoxy}acetate], the EC50 is 45.8 nM.

In the case of `CCCCc1nc2c(N)nc3ccccc3c2n1CCCN(CCCN1CCOCC1)Cc1cccc(OCC(=O)OC)c1` [Example 21, Methyl (3-{[[3-(4-amino-2-butyl-1H-imidazo[4,5-c]quinolin-1-yl)propyl](3-morpholinopropyl)amino]methyl}phenoxy)acetate], the half-maximal effective concentration (EC50) turned out to be 787 nM. Consider `CCN(CC)CC(=O)N(CCn1c(CCOC)nc2c(N)nc3ccccc3c21)Cc1cccc(OC(C)(C)C(=O)OC)c1` [Example 107, Methyl 2-{3-[(N-{2-[4-amino-2-(2-methoxyethyl)-1H-imidazo[4,5-c]quinolin-1-yl]ethyl}-2-{diethylamino}acetamido)methyl]phenoxy}-2-methylpropanoate], for which the EC50 was > 10000 nM. In the case of `CCCCc1nc2c(N)nc3ccccc3c2n1CCCN(Cc1cccc(OC(C)(C)C(=O)OC)c1)C(=O)CN1CCCC1` [Example 169, Methyl 2-[3-({N-[3-(4-amino-2-butyl-1H-imidazo[4,5-c]quinolin-1-yl)propyl]-2-(pyrrolidin-1-yl)acetamido}methyl)phenoxy]-2-methylpropanoate] it was 155 nM; in that of `CCN(CC)CC(=O)N(CCCn1c(CCOC)nc2c(N)nc3ccccc3c21)Cc1cccc(OCC(=O)OC2CCOCC2)c1` [Example 82, Tetrahydro-2H-pyran-4-yl 2-{3-[(N-{3-[4-amino-2-(2-methoxyethyl)-1H-imidazo[4,5-c]quinolin-1-yl]propyl}-2-{diethylamino}acetamido)methyl]phenoxy}acetate], 115 nM.

In the case of `CCC(Oc1cccc(CN(CCCn2c(CCOC)nc3c(N)nc4ccccc4c32)C(=O)CN(CC)CC)c1)C(=O)OC` (stereo not shown) [Example 70, Methyl 2-{3-[(N-{3-[4-amino-2-(2-methoxyethyl)-1H-imidazo[4,5-c]quinolin-1-yl]propyl}-2-{diethylamino}acetamido)methyl]phenoxy}butanoate], the concentration giving a half-maximal response (EC50) amounted to 25.9 nM.

Turning to `COCCc1nc2c(N)nc3ccccc3c2n1CCCNC(=O)N(CCCN(C)C)Cc1ccc(OCC(=O)OC)cc1` [Example 22, Methyl [4-({[({3-[4-amino-2-(2-methoxyethyl)-1H-imidazo[4,5-c]quinolin-1-yl]propyl}amino)carbonyl][3-(dimethylamino)propyl]amino}methyl)phenoxy]acetate], the half-maximal effective concentration (EC50) was found to be 188 nM. As to `CCOC(=O)COc1ccccc1CN(CCCn1c(CCOC)nc2c(N)nc3ccccc3c21)C(=O)CN(CC)CC` [Example 41, Ethyl 2-{2-[(N-{3-[4-amino-2-(2-methoxyethyl)-1H-imidazo[4,5-c]quinolin-1-yl]propyl}-2-(diethylamino)acetamido)methyl]phenoxy}acetate], the EC50 was determined as 137 nM. In the case of `CCOCc1nc2c(N)nc3ccccc3c2n1CCCN(Cc1cccc(OC(C)(C)C(=O)OCC)c1)C(=O)CN1CCCC1` [Example 170, Ethyl 2-{3-[(N-{3-[4-amino-2-(ethoxymethyl)-1H-imidazo[4,5-c]quinolin-1-yl]propyl}-2-{pyrrolidin-1-yl}acetamido)methyl]phenoxy}-2-methylpropanoate] it was 521 nM; in that of `CCN(C)CC(=O)N(CCCn1c(CCOC)nc2c(N)nc3ccccc3c21)Cc1cccc(OCC(=O)OC(C)C)c1F` [Example 98, Isopropyl 2-{3-[(N-{3-[4-amino-2-(2-methoxyethyl)-1H-imidazo[4,5-c]quinolin-1-yl]propyl}-2-{ethyl(methyl)amino}acetamido)methyl]-2-fluorophenoxy}acetate], 228 nM. For the compound `CCOC(=O)COc1cc(CN(CCCCn2c(CCOC)nc3c(N)nc4ccccc4c32)C(=O)NCCN2CCCCC2)ccc1F` [Example 140, Ethyl 2-{5-[(1-{4-[4-amino-2-(2-methoxyethyl)-1H-imidazo[4,5-c]quinolin-1-yl]butyl}-3-{2-(piperidin-1-yl)ethyl}ureido)methyl]-2-fluorophenoxy}acetate], the EC50 was 79.1 nM. In the case of `COCCc1nc2c(N)nc3ccccc3c2n1CCCN(Cc1cccc(OCC(=O)OC)c1)C(=O)CN1CCN(C)CC1` [Example 18, Methyl (3-{[[3-(4-amino-2-(2-methoxyethyl)-1H-imidazo[4,5-c]quinolin-1-yl)propyl][(4-methylpiperazin-1-yl)acetyl]amino]methyl}phenoxy)acetate] it was 1270 nM; in that of `CCOC(=O)COc1cccc(CN(CCCn2c(CCOC)nc3c(N)nc4ccccc4c32)C(=O)CN(C)CC)c1F` [Example 97, Ethyl 2-{3-[(N-{3-[4-amino-2-(2-methoxyethyl)-1H-imidazo[4,5-c]quinolin-1-yl]propyl}-2-{ethyl(methyl)amino}acetamido)methyl]-2-fluorophenoxy}acetate], 256 nM.

For the compound `CCOC(=O)C(C)(C)Oc1cccc(CN(CCCn2c(CCOC)nc3c(N)nc4ccccc4c32)C(=O)CN(CC)CC)c1` [Example 55, Ethyl 2-{3-[(N-{3-[4-amino-2-(2-methoxyethyl)-1H-imidazo[4,5-c]quinolin-1-yl]propyl}-2-{diethylamino}acetamido)methyl]phenoxy}-2-methylpropanoate], the 50% effective concentration (EC50) amounted to 46.4 nM. Then `CCOC(=O)COc1cc(CN(CCCn2c(CCOC)nc3c(N)nc4ccccc4c32)C(=O)CN(CC)CC)ccc1C` [Example 66, Ethyl 2-{5-[(N-{3-[4-amino-2-(2-methoxyethyl)-1H-imidazo[4,5-c]quinolin-1-yl]propyl}-2-{diethylamino}acetamido)methyl]-2-methylphenoxy}acetate], with 27.3 nM. For the compound `CCOCc1nc2c(N)nc3ccccc3c2n1CCCN(Cc1cccc(OC(C)(C)C(=O)OC)c1)C(=O)CN1CCCC1` [Example 171, Methyl 2-{3-[(N-{3-[4-amino-2-(ethoxymethyl)-1H-imidazo[4,5-c]quinolin-1-yl]propyl}-2-{pyrrolidin-1-yl}acetamido)methyl]phenoxy}-2-methylpropanoate], the half-maximal effective concentration (EC50) stood at 560 nM. In the case of `CCOC(=O)COc1cc(F)cc(CN(CCCn2c(CCOC)nc3c(N)nc4ccccc4c32)C(=O)CN(CC)CC)c1` [Example 124, Ethyl 2-{3-[(N-{3-[4-amino-2-(2-methoxyethyl)-1H-imidazo[4,5-c]quinolin-1-yl]propyl}-2-{diethylamino}acetamido)methyl]-5-fluorophenoxy}acetate] it was 40.3 nM. In the case of `CCCCc1nc2c(N)nc3ccccc3c2n1CCCN(Cc1ccc(OCC(=O)OC)cc1)C(=O)CN1CCN(C)CC1` [Example 7, Methyl [4-({[3-(4-amino-2-butyl-1H-imidazo[4,5-c]quinolin-1-yl)propyl][(4-methylpiperazin-1-yl)acetyl]amino}methyl)phenoxy]acetate] it was 633 nM; in that of `CCCOCc1nc2c(N)nc3ccccc3c2n1CCCN(Cc1cccc(OC(C)(C)C(=O)OC)c1)C(=O)CN(CC)CC` [Example 174, Methyl 2-{3-[(N-{3-[4-amino-2-(propoxymethyl)-1H-imidazo[4,5-c]quinolin-1-yl]propyl}-2-{diethylamino}acetamido)methyl]phenoxy}-2-methylpropanoate], 117 nM; in that of `COCCc1nc2c(N)nc3ccccc3c2n1CCCN(Cc1cccc(OCC(=O)OC)c1)C(=O)CN(C)C` [Example 17, Methyl (3-{[[3-(4-amino-2-(2-methoxyethyl)-1H-imidazo[4,5-c]quinolin-1-yl)propyl](N,N-dimethylglycyl)amino]methyl}phenoxy)acetate], 349 nM.
